Assays:
[1] = membrane transition temperatures by X-ray diffraction; type: physicochemical; conditions: POPE with 1 mol % of TGM
Excerpt: As can be appreciated, the presence of TGM induce a very important reduction in the lateral surface tension which is evident from the reduction in the value of the lamellar-to-hexagonal (L-a-HII) transition temperature, which in turn indicates an increase in non-lamellar propensity: Table 12). This effect has an important repercussion on the functionality of the membrane, as this structure allows for the anchoring of certain membrane proteins necessary for cell signalling. For this reason, it can be said that the TGMs have a positive effect on cell signalling because they allow the propagation of cell signals which are lost in association with a wide variety of diseases. This effect shown on the structure of the membrane explains in part why certain oils, such as olive oil or fish oil, have important beneficial properties for the prevention of various diseases, such as cancer, cardiovascular/metabolic diseases and neurological/neurodegenerative diseases. FIG. 6 and Table 12 show clearly how all the TGMs have a similar effect, although with minor nuances in each case. The effect on the solid-liquid transition (Tm) and the lamellar to hexagonal transition (TH) was measured in membranes of palmitoyl-oleoyl phosphatidylethanolamine (POPE) by means of X-ray diffraction in the absence of (POPE Control) or presence of 1 mol % of each one of the indicated TGMs.

cholesterol in plasma = test: plasma cholesterol in SHR rats; type: in vivo; conditions: p.o.; for Chol, levels of total cholesterol in plasma: 6 days, 400 mg/kg
Excerpt: Metabolic and cardiovascular pathologies are closely related. The overfeeding which characterises our society not only gives rise to problems of obesity and excess weight. It is also linked to the appearance of diabetes, dyslipidaemia, hypertension, strokes, arteriosclerosis, ictus, etc. All of these pathologies increase the risk of premature death and can even cause death. In this sense, certain natural oils show a certain efficacy against this type of pathologies, but their power is limited. In contrast, the molecules of the invention have an important effect against the development of this type of pathologies. To be able to study the effects of the compounds of the invention for the prevention and treatment of metabolic and cardiovascular pathologies, hypertensive rats were used (SHR strain, spontaneously hypertensive rats). These rats present obesity, high blood pressure, dyslipidaemia (hypercholesterolemia and hypertriglyceridemia), diabetes, metabolic syndrome and other related health problems. Also, SHR rats were used to research the efficacy of the hydroxy-triglycerides for the prevention and treatment of dyslipidaemias. On the one hand, treatments with different oral doses and durations gave rise to reductions in the plasma levels of total cholesterol and its fractions in test animals (Tables 5 and 6). These reductions were marked and significant, returning the cholesterol in plasma values to those found in animals without metabolic/cardiovascular disorders. […] [table] [table]

[2] = target: T1, Glycogen Branching Enzyme 1 (GBE1) wild type (Homo sapiens, UniProt Q04446); test: activity of purified enzyme GBE1 in the presence of PC membranes; type: biochemical; conditions: PC membranes with TGM 20 mol %; non-mutated enzyme = 100% (0.76 nmol/min · ng protein)
T1 sequence (Q04446 1-702): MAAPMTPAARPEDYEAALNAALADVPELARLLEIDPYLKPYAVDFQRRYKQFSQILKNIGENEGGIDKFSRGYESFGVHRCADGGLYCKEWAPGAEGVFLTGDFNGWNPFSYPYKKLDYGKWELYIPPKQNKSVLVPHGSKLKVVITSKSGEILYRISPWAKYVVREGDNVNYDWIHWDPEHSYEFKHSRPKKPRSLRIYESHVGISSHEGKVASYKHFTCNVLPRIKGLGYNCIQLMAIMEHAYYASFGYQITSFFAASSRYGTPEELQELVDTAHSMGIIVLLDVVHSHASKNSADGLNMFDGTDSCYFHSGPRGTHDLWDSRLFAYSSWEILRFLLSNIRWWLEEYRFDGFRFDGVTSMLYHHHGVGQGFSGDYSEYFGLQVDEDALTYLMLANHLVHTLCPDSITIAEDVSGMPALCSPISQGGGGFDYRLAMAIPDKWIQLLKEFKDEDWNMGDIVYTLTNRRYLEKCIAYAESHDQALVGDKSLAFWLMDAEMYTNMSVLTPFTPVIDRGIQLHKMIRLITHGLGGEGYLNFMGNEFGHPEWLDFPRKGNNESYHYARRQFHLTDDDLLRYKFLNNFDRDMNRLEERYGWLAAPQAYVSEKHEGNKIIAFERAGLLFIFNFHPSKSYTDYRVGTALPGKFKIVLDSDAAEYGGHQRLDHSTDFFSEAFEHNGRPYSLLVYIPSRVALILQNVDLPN
Excerpt: It has been possible to observe that the molecules of the present invention are capable of regulating the activity of the Glycogen Branching Enzyme 1 (GBE1) and its joining to membranes (Table 9). Alterations in this enzyme give rise to a neurodegenerative process known as APBD (Kakhlon et al., 2013). It has been described that a modification of tyrosine in position 329 of this enzyme (Y329S) causes a reduction in the activity of GBE1. This gives rise to a lower branching of glycogen, which precipitates forming […] which interfere with cell activity (Kakhlon et al., 2013). This gives rise to problems in the function of certain organs, to motor problems and, in some cases, to cognitive decline. We have been able to verify that the hydroxy-triglycerides of the present invention are capable of regulating the joining of native GBE1 (wild type, wt) and with the variant Y329S to membranes and to increase the activity of the form Y329S, which is very low in normal conditions (Table 9). For this reason, the molecules of the present invention are effective for the prevention and treatment of the polyglucosan bodies disease, APBD.

SMILES: CCCCCC=CCC=CCC=CCCCC(O)C(=O)OCC(COC(=O)C(O)CCCC=CCC=CCC=CCCCCC)OC(=O)C(O)CCCC=CCC=CCC=CCCCCC (stereo not drawn) [TGM3G, 1,2,3-tri(2′-hydroxy-octadec-6′,9′,12′-trienoyl)glycerol]
- TH, lamellar to hexagonal transition temperature [1]: 63.6 ± 1.1 °C
- Tm, solid-liquid transition temperature [1]: 23.3 ± 0.3 °C
- Chol, levels of total cholesterol in plasma (cholesterol in plasma): 65.1 ± 4 mg/dL
- Activity GBE1wt [2]: 69 ± 7%

SMILES: CCCCCC=CCC=CCCCCCCC(O)C(=O)OCC(COC(=O)C(O)CCCCCCC=CCC=CCCCCC)OC(=O)C(O)CCCCCCC=CCC=CCCCCC (stereo not drawn) [TGM2, 1,2,3-tri(2′-hydroxy-octadec-9′,12′-dienoyl)glycerol]
- TH, lamellar to hexagonal transition temperature [1]: 62.0 ± 1.1 °C
- Tm, solid-liquid transition temperature [1]: 23.6 ± 0.3 °C
- Chol, levels of total cholesterol in plasma (cholesterol in plasma): 51.7 ± 2 mg/dL
- Activity GBE1wt [2]: 72 ± 5%

SMILES: CCC=CCC=CCC=CCC=CCC=CCC=CCC(O)C(=O)OCC(COC(=O)C(O)CC=CCC=CCC=CCC=CCC=CCC=CCC)OC(=O)C(O)CC=CCC=CCC=CCC=CCC=CCC=CCC (stereo not drawn) [TGM6, 1,2,3-tri(2′-hydroxy-docosa-4′,7′,10′,13′,16′,19′-hexanoyl)glycerol]
- TH, lamellar to hexagonal transition temperature [1]: 64.9 ± 0.9 °C
- Tm, solid-liquid transition temperature [1]: 23.3 ± 0.2 °C
- Chol, levels of total cholesterol in plasma (cholesterol in plasma): 48.9 ± 3 mg/dL
- Activity GBE1wt [2]: 33 ± 3%

SMILES: CCCCCCCCC=CCCCCCCC(O)C(=O)OCC(COC(=O)C(O)CCCCCCC=CCCCCCCCC)OC(=O)C(O)CCCCCCC=CCCCCCCCC (stereo not drawn) [TGM1, 1,2,3-tri(2′-hydroxy-octadec-9′-enoyl)glycerol]
- TH, lamellar to hexagonal transition temperature [1]: 66.0 ± 0.9 °C
- Tm, solid-liquid transition temperature [1]: 23.8 ± 0.3 °C
- Chol, levels of total cholesterol in plasma (cholesterol in plasma): 55.5 ± 2 mg/dL
- HDL in plasma (cholesterol in plasma; 14 days, 600 mg/kg, 12 h): 33.44 ± 2.251 mmHgmg/dl
- LDL in plasma (cholesterol in plasma; 14 days, 600 mg/kg, 12 h): 3.644 ± 0.3244 mmHgmg/dl
- Total cholesterol in plasma (cholesterol in plasma; 14 days, 600 mg/kg, 12 h): 49.11 ± 3.084 mmHgmg/dl
- Activity GBE1wt [2]: 89 ± 10%

SMILES: CCC=CCC=CCC=CCC=CCC=CCCC(O)C(=O)OCC(COC(=O)C(O)CCC=CCC=CCC=CCC=CCC=CCC)OC(=O)C(O)CCC=CCC=CCC=CCC=CCC=CCC (stereo not drawn) [TGM5, 1,2,3-tri(2′-hydroxy-eicosa-5′,8′,11′,14′,17′-pentaenoyl)glycerol]
- Chol, levels of total cholesterol in plasma (cholesterol in plasma): 58.4 ± 3 mg/dL
- Activity GBE1wt [2]: 24 ± 2%

SMILES: CCC=CCC=CCC=CCCCCCCC(O)C(=O)OCC(COC(=O)C(O)CCCCCCC=CCC=CCC=CCC)OC(=O)C(O)CCCCCCC=CCC=CCC=CCC (stereo not drawn) [TGM3A, 1,2,3-tri(2′-hydroxy-octadec-9′,12′,15′-trienoyl)glycerol]
- TH, lamellar to hexagonal transition temperature [1]: 63.0 ± 1.1 °C
- Tm, solid-liquid transition temperature [1]: 23.4 ± 0.2 °C
- Chol, levels of total cholesterol in plasma (cholesterol in plasma): 49.8 ± 2 mg/dL
- Activity GBE1wt [2]: 88 ± 2%

SMILES: CCCCCC=CCC=CCC=CCC=CCCC(O)C(=O)OCC(COC(=O)C(O)CCC=CCC=CCC=CCC=CCCCCC)OC(=O)C(O)CCC=CCC=CCC=CCC=CCCCCC (stereo not drawn) [TGM4, 1,2,3-tri(2′-hydroxy-eicosa-5′,8′,11′,14′-tetraenoyl)glycerol]
- TH, lamellar to hexagonal transition temperature [1]: 64.6 ± 0.8 °C
- Tm, solid-liquid transition temperature [1]: 23.2 ± 0.2 °C
- Chol, levels of total cholesterol in plasma (cholesterol in plasma): 72.7 ± 2 mg/dL
- Activity GBE1wt [2]: 31 ± 4%

SMILES: CCCCCC(O)C(=O)OCC(COC(=O)C(O)CCCCC)OC(=O)C(O)CCCCC (stereo not drawn) [TGM0, 1,2,3-tri(2′-hydroxyheptanoyl)glycerol]
- TH, lamellar to hexagonal transition temperature [1]: 68.3 ± 0.6 °C
- Tm, solid-liquid transition temperature [1]: 22.7 ± 0.2 °C
- Chol, levels of total cholesterol in plasma (cholesterol in plasma): 62.2 ± 3 mg/dL
- Activity GBE1wt [2]: 95 ± 12%

From US10047036B2, “Method for the synthesis of hydroxy-triglycerides and uses thereof for the prevention and treatment of diseases” (UNIVERSITAT DE LES ILLES BALEARS, priority 2014, dated 2018)
